What was measured:
[1] = test system: TRPC1 binding to GST-Homer; test: GST-Homer pull-down of TRPC1 from lysates of treated HEK293 cells; type: cell-based, human; conditions: HEK293 cells transfected with HA-TRPC1 and FKBP52, GPI-1046 1 nM, 100 nM, 500 nM, 1 μM for 30 min
Method: GST pull-down, Co-IP and immunocytochemistry. Protein binding assays were done as previously described (Yuan et al., Cell 114:777-89, 2003). Transfected cells were harvested and lysed using 500 μl of binding buffer (1×PBS buffer containing 1 mM NaVO3, 10 mM NaPyrophosphate, 50 mM NaF [pH 7.4], and 1% Triton X-100). The cell extracts were sonicated, and insoluble material was spun down at 30,000 g for 20 min. For GST pull-down, GST-H3 EVH was expressed in BL21 bacterial cells by growing a 400 ml culture at 37 C until […] was 0.4-0.6. Cells were induced with […] IPTG for an additional hour, harvested, lysed in […] of 1% Triton X-100 in 1×PBS+[…] PMSF, sonicated 3×10 strokes, and spun down at 12,000 g for 5 min. The supernatant was mixed 1:1 with a slurry of GST-agarose beads (Sigma) for 30 min at 4 C. Beads were washed 2 times with 1% Triton X-100 in 1×PBS and 2 times with 1×PBS. 50 μl of 1:1 slurry of GST-H3 EVH beads were used per 100 μl cell extract and rocked for 2 hr at 4° C. For co-IP experiments, 1 μg of purified antibody or 2 μl of crude antiserum was added to 100 μl of cell extract and incubated for 1 hr at 4° C. Then, 1:1 slurry of protein A or G SEPHAROSE 4B beads were added to the antibody-extract mix and incubated for an additional hour at 4° C. […]

[2] = test system: growth cones of Xenopus spinal neurons; test: Ca2+ imaging of growth cones of cultured spinal neurons (netrin-1-induced Ca2+ rise); type: cell-based
Method: Ca^2+ imaging of cultured spinal neurons. Ca^2+ imaging of growth cones of Xenopus spinal neurons was carried out as previously described (Ming et al., Nature 417:411-8, 2002; and Ming et al., Neuron 19:1225-35, 1997). Specifically, isolated Xenopus spinal neurons were loaded with Fluo-4 AM (2 μM, Molecular Probes) in the culture media without serum for 30 min at room temperature, and rinsed with the media for growth cone turning assay. Ca^2+ imaging was performed using a Zeiss 510 META system equipped with a 20× objective (NA 0.8). Excitation was at 488 nm by argon laser and the emitted fluorescence was collected at […]. Fluorescence and bright-field images were simultaneously acquired at every 30 seconds with a frame scan. The fluorescence intensity of each time point was measured over a fixed rectangular region of interest that covers the entire growth cone and normalized to the average fluorescence intensity that was measured during a 5 min baseline period (prior to netrin-1 application).

[3] = test system: growth cones of Xenopus spinal neurons; test: Growth cone turning assay in a netrin-1 gradient; type: cell-based; conditions: for growth cone turning response in a GPI-1046 gradient: GPI-1046 100 μM in the pipette
Method: Growth cone turning assay. Microscopic gradients of netrin-1 (5 μg/ml in the pipette), MAG (150 μg/ml in the pipette) and GPI-1046 (100 μM in the pipette) were produced as previously described (Lohof et al., J Neurosci 12:1253-61, 1992; and Zheng et al., Nature 368:140-4, 1994). […] Xenopus spinal neurons were used 14 to 20 hrs after plating and neurons with the lineage-tracer were identified under fluorescent microscope and used for turning assay at room temperature as previously described (Ming et al., Nature 417:411-8, 2002; Ming et al., Neuron 19:1225-35, 1997; Lohof et al., J Neurosci 12:1253-61, 1992; and Zheng et al., Nature 368:140-4, 1994). GFP^+ hippocampal neurons were used 48-72 hours after plating and individual axon was identified for turning assay at the room temperature. The turning angle was defined by the angle between the original direction of neurite extension and a straight line connecting the positions of the center of the growth cone at the onset and the end of the 30 min period. The rates of neurite extension were calculated based on the net neurite extension during the turning assay. Only those growth cones of isolated neurons with a net neurite extension >5 μm over the 30-min period were included for analysis. Statistical significance was assessed using the Kolmogorov-Smirnov test.

[4] = test system: axonal growth cones of rat hippocampal neurons; test: Growth cone turning assay in a MAG gradient; type: cell-based; conditions: MAG 150 μg/ml in the pipette
Method: Primary hippocampal neuronal cultures and transfection. Hippocampal neurons were isolated from postnatal rats (P3-P5) and were cultured on poly-L-lysine coated coverslips as previously described (Song et al., Nature 417:39-44, 2002). These neurons were transfected with the AMAXA transfection system following protocols from the manufacturer. Briefly, hippocampal neurons were isolated and 100 μl of nucleofector solution was added to resuspend the cell pellet. Different expression constructs (1-5 μg), GFP, FKBP52-FD67DV, TRPC1-P645A or a combination of TRPC1-P645A and FKBP52-WT, were added to the cell suspension and then transferred to cuvettes for electroporation. The cells were cultured in DMEM with 10% fetal bovine serum for 24 hrs before changing to serum-free neurobasal medium (Song et al., Nature 417:39-44, 2002). Growth cone turning assay. Microscopic gradients of netrin-1 (5 μg/ml in the pipette), MAG (150 μg/ml in the pipette) and GPI-1046 (100 μM in the pipette) were produced as previously described (Lohof et al., J Neurosci 12:1253-61, 1992; and Zheng et al., Nature 368:140-4, 1994). […] The rates of neurite extension were calculated based on the net neurite extension during the turning assay. […] Statistical significance was assessed using the Kolmogorov-Smirnov test.

[5] = test system: commissural interneuron axons in developing Xenopus embryos; test: Commissural interneuron axon midline guidance in developing spinal cord (3A10 immunostaining); type: in vivo
Method: Xenopus embryo injection and cell culture. Blastomere injections of morpholino oligos or mRNAs encoding TRPC1, FKBP52 or their mutant forms into early stages of Xenopus embryos and culturing of spinal neurons from these injected embryos were performed as previously described (Shim et al., Nat Neurosci 8:730-5, 2005). Specifically, fertilized embryos were injected at the one- or two-cell stage, with a mixture of the morpholino (10 ng/embryo) or mRNA (2-3 ng/embryo), and a lineage tracer. The following DNA constructs were subcloned into the pCS2 vector and used for in vitro transcription with the mMESSAGE mMACHINE SP6 kit (Ambion): Myc-FKBP52-WT, Myc-FKBP52-FD67DV, HA-TRPC1-WT, HA-TRPC1-P645L, HA-TRPC1-P645A, GFP-XTRP C1. A morpholino oligo directed against Xenopus DCC (XDCC-MO) was designed with the following sequence: 5′ […] 3′. Injected embryos at stage 22 were used for cultures of spinal neurons as previous described (Shim et al., Nat Neurosci 8:730-5, 2005).
Whole-mount immunocytochemistry and confocal imaging. Embryos at stage 23-28 were fixed and processed for immunocytochemistry as previously described (Shim et al., Nat Neurosci 8:730-5, 2005; and Gomez et al., Nature 397:350-5, 1999). […] Statistical significance was assessed using the Bootstrap test and accepted if p <0.01.

[6] = test system: FKBPs; conditions: Steiner et al., PNAS 94:2019-24, 1997; cited from earlier work
[7] = test system: calcineurin; conditions: Steiner et al., PNAS 94:2019-24, 1997; cited from earlier work

| Compound | TRPC1 binding to GST-Homer [1] | netrin-1-induced Ca2+ rise in growth cones ([2]; Xenopus spinal neurons, Fluo-4, netrin-1 5 ng/ml, GPI-1046 100 nM in bath) | growth cone turning response in a GPI-1046 gradient ([3]; uniform netrin-1 10 ng/ml in the bath) | growth cone turning response in a GPI-1046 gradient ([3]; without uniform netrin-1 stimulation) | growth cone turning response in a netrin-1 gradient ([3]; netrin-1 5 μg/ml in the pipette, bath application of 100 nM, 30 min) | MAG-induced growth cone repulsion [4] | commissural interneuron axon midline guidance ([5]; 0.5 μM applied to Xenopus embryos between stage 22-25) | inhibition of FKBP isomerase activity [6] | inhibition of calcineurin [7] | netrin-1-induced Ca2+ rise in growth cones ([2]; neurons from embryos injected with morpholino (10 ng/embryo)) | commissural interneuron axon midline guidance ([5]; morpholino injected at the one-cell stage, stage 25 embryos) |
| --- | --- | --- | --- | --- | --- | --- | --- | --- | --- | --- | --- |
| CCC(C)(C)C(=O)C(=O)N1CCC[C@H]1C(=O)OCCCc1cccnc1 [GPI-1046, 3-(3-pyridyl)-1-propyl (2S)-1-(3,3-dimethyl-1,2-dioxopentyl)-2-pyrrolidinecarboxylate] | increased TRPC1 binding to GST-Homer | abolished netrin-1-induced Ca^2+ rise | significant repulsive turning responses | no bias in the direction of growth cone extension | blocked netrin-1-induced attraction | abolished MAG-induced repulsion | significant guidance defects | inhibits their isomerase activity | does not inhibit calcineurin |  |  |
| XDCC-MO: morpholino oligo directed against Xenopus DCC, 5′ CCAAGACAATTCTCCATATTTCAGC 3′ (all phosphorodiamidate morpholino (PMO)) |  |  |  |  |  |  |  |  |  | abolished netrin-1-induced Ca^2+ rise | failed to reach the midline |

From patent US20110171230A1, “Method of Identifying Agents that Promote Axonal Development” (The Johns Hopkins University, priority 2008, published 2011)
